Laboratory results: patent publication US9221873B1, “Short-chain peptide capable of controlling spermatozoa fertilization performance” (NATIONAL TAIWAN UNIVERSITY, priority 2014, dated 2015)

Tests used:
mouse spermatozoa = assay: Measuring the [Ca2+]i in spermatozoa (Fluo-4 AM fluorescence); type: cell-based; conditions: FIG. 1; for [Ca2+]i increases by (change in fluorescent intensity, (F'-F0)/F0): plateau phase 27-30 minutes
Description: Spermatozoa are prepared for measuring changes in the intracellular concentration of free calcium ions ([Ca^2]i). Modified HEPES medium (120 mM of NaCl, 2 mM of KCl, 1.2 mM of MgSO4.7H2O, 0.36 mM of NaH2PO4, 15 mM of NaHCO3, 10 mM of HEPES, 5.6 mM of glucose, 1.1 mM of sodium pyruvate, 18.5 mM of sucrose, 100 IU/ml of penicillin, and 100 μg/ml of streptomycin), spermatozoa culture medium, is pre-incubated in incubator with 5% CO2 at 37° C. for 24 hours before using to adjust the medium pH ranges between 7.3 and 7.4. The cauda epididymis is cut into several pieces, incubated in the medium at 37° C. for 20 minutes, put on 1 ml of 75% (v/v) Percoll solution, and centrifuged at 300×g for 30 minutes to isolate higher motility spermatozoa for [Ca^2+]i measurement experiment.
Changes in the [Ca^2+]i in uncapacitated spermatozoa are measured. Spermatozoa (1×10^8 cells per milliliter) is incubated in modified HEPES medium, containing 15 μM of Fluo-4 AM, in the darkness at 37° C. for 45 minutes. Fluo-4 AM is a fluorescent Ca^2+ indicator capable of penetrating cell membranes. Then, the spermatozoa are washed thrice by 100×g centrifugation at room temperature for 5 minutes to remove the residual dye. The sperm cell pellet is suspended in a modified HEPES medium, containing 1.8 mM of CaCl2, and the cell concentration is adjusted to 5×10^6 cells per milliliter. […] The changes of fluorescent intensity are measured with the Synergy H1 Hybrid Multi-Mode Microplate Reader (Bio-Tek, Winooski, Vt., USA) at 37° C. via an excitation wavelength of 485 nm and an emission wavelength of 520 nm. […] Changes in [Ca^2+]i are calculated with the equation (F′−F0)/F0 (%), wherein F′ denotes the fluorescent intensity measured at different time points during the experiment, and F0 denotes the average of fluorescent intensity measured 0 to 5 minutes before adding kisspeptin-10. Last but not least, the average change in the fluorescent intensity during the plateau phase (27˜30 minutes) of [Ca^2+]i is calculated.

spermatozoa = assay: IVF test (in vitro fertilization, success fertilization rate); type: cell-based, mouse; conditions: spermatozoa incubated with 50 μM during capacitation, 2 hours, 37° C.; control group larger than 80%; binds KISS1R; FIG. 2
Description: In the in vitro fertilization experiment, spermatozoa isolated from cauda epididymis are incubated in HTF (human tubal fluid) medium (Merck Millipore) at 37° C. for 20 minutes and then diluted the cell concentration to 1×10^6 spermatozoa per milliliter.
The uncapacitated spermatozoa is incubated in HTF medium and then treated with peptide 234 during capacitation step, such that kisspeptin signal effects on final fertilization step is evaluated. The 0.9% saline is added to the control group to substitute for the peptide 234 solution. In detail, spermatozoa (1×10^6 cell per milliliter) are incubated in a capacitation-condition medium with 50 μM peptide 234 or saline at 37° C. for 2 hours. Then, the fertilization process begins with the introduction of cumulus-oocyte complexes (COCs) into the culture medium and incubation at 37° C. for 6 hours. The oocytes are washed thrice and incubated in KSOM+AAs culture medium (potassium simplex optimized medium plus amino acids, Merk Millipore) for 24 hours. The success fertilization rate is calculated according to the ratio of the number of two-cell embryos to the total number of oocytes. […]

Substance	[Ca2+]i increases by (change in fluorescent intensity, (F'-F0)/F0) (mouse spermatozoa; mouse spermatozoa treated with 50 μM)	[Ca2+]i increases by (change in fluorescent intensity, (F'-F0)/F0) (mouse spermatozoa; mouse spermatozoa treated with 100 μM)	[Ca2+]i change (fluorescent intensity), in words (mouse spermatozoa; mouse spermatozoa treated with 25, 50 and 100 μM)	success fertilization rate (two-cell embryos / total oocytes) (spermatozoa)
kisspeptin 10: short-chain peptide kisspeptin-10 (SEQ ID NO:6), rodent expressed kisspeptin, purchased from Kelowna international Scientific (YNWNSFGLRY; Rodent expressed kisspeptin-10)	85.5±14.4%	129.9±24.9%	increases	–
peptide 234: kisspeptin antagonist peptide 234 (SEQ ID NO:10), binds to KISS1R on the spermatozoa (ANWNGFGWRF; Kisspeptin antagonist peptide 234)	–	–	–	less than 60%
